Experimental data: publication PMC8878047 (Pharmaceutics, 2022)
Like-named read-outs stand apart in the source and are kept apart here.

Columns and labels:
[1] = Experimental: All tests were conducted in the animal experimental center of Guangxi Medical University. Preliminary experiments were needed before starting official tests. […] Groups of mice (n = 10 per group, half male and half female) received different doses of the tested compounds by gavage at the same single dose of drug solution, which was uniformed to be […] (drug solution)/10 g, but containing different concentration of tested drugs. […] We compared these mice with the control group in which the mice were not given drugs, according to the pre-experimental procedure. We closely observed the mice for 6 h after the gavage for signs of toxicity and mortality. As soon as death occurred among the maximum-dose group, we conducted an autopsy and took samples from the main organs for histopathological examination. In addition, we monitored all of the tested mice for 2 weeks to record their weight and mortality.
[2] = tested on: wild type AB strain zebrafish; conditions: for statistical death of the tested zebrafish / statistical survival of the tested zebrafish: 30 embryos per well
Experimental: Zebrafish were incubated and grown in the Joint Laboratory established by Shandong Rui’ying Pharmaceutical Group (Heze, China) and China Pharmaceutical University. Both the Wild-type AB (Danio rerio) and Tg(mpx:eGFP) zebrafish strains were maintained under the guidance of the standard procedures of The Zebrafish Book. […] Then the zebrafish were allowed to naturally mate and spawn the next morning. The normally born embryos were then collected after 1 h and kept in an incubating system at 28 °C. The 6 hpf (hour post fertilization) embryos were transferred into a 6-well plate exposed to 5 mL of egg water, in which 30 embryos were in each well.

[3] = tested on: neutrophil cluster aggregation; test: CuSO4-induced inflammation model in Tg(mpx:eGFP) zebrafish; conditions: 10 μM CuSO4 40 min, Tg(mpx:eGFP) 3 dpf
[4] = tested on: H2O2-induced ROS production; test: H2O2-induced oxidative stress model in zebrafish (DCFH-DA); conditions: 48 h pre-treatment, H2O2 1.0 mM 4 h, H2O2-induced 17,250, control 590
[5] = Pharmacokinetic study in plasma after oral administration (HPLC-MS); conditions: SD rats, EFX 10 mg/kg, EFX-Ca 12 mg/kg
[6] = tested on: E. coli; test: Quasi-clinical trial on E. coli-infected AA broilers (drug-mixed feeding); conditions: for Average Final Weight / Average Weight Gain / Average Increment of Weight / Cure Rate (%) / Survival Number: AA broilers; for Average Weight Gain: Table 7; for Average Increment of Weight: Table 8; for Cure Rate (%) / Survival Number: 6 d; for Survival Number: 50 per group
Experimental: (§1) Then, broilers were randomly and equally divided into five different groups and marked as five groups. […] Note that the daily drug-mixed feeding ratio (g drug/kg feed) was indicated for the first 4 h every day, and unmedicated feed then followed. In addition, E. coli strains for the infection of chicken was supplied as a freeze-dried powder. They were revived and cultured according to the standard procedures. The strain was inoculated into a liquid medium and cultured in a 37 °C incubator for 6–8 h. We detected the concentration of the bacterial liquid to be 2.8 × 10^8 CFU/mL as the pathogenic concentration. Finally, all of the chickens except the healthy control group were intramuscularly injected with 0.5 mL of pathogenic bacteria, and all chickens were fasted for 4 h. After successfully simulating the bacterial infection of the chickens, the drug-mixed feeding chickens were continuously fed for 6 d. During this time, we observed their behavioral habits, mortality, and recovery rates.

[7] = tested on: E. coli; test: Quasi-clinical trial on E. coli-infected 817 broilers (drug-mixed feeding); conditions: for Average Final Weight / Average Weight Gain / Average Increment of Weight / Cure Rate (%) / Survival Number: 817 broilers; for Average Weight Gain: Table 7; for Average Increment of Weight: Table 8; for Cure Rate (%) / Survival Number: 6 d; for Survival Number: 50 per group
Experimental: as §1

[8] = 0.01 μM medicated bath, 120 hpf
[9] = EFX-Ca High 14 g drug (5% solution) + 1.5 kg feed/4 h
[10] = EFX-Ca Low 6 g drug (5% solution) + 1.5 kg feed/4 h
[11] = EFX-Ca Medium 9 g + 1.5 kg feed
[12] = EFX-Ca Medium 9 g drug (5% solution) + 1.5 kg feed/4 h
[13] = EFX-Ca High 14 g + 0.75 kg feed
[14] = EFX-Ca High 14 g drug (5% solution) + 0.75 kg feed/4 h
[15] = EFX-Ca Low 6 g drug (5% solution) + 0.75 kg feed/4 h
[16] = EFX-Ca Medium 9 g + 0.75 kg feed
[17] = EFX-Ca Medium 9 g drug (5% solution) + 0.75 kg feed/4 h

## CCN1CCN(c2cc3c(cc2F)c(=O)c(C(=O)[O-])cn3C2CC2)CC1.CCN1CCN(c2cc3c(cc2F)c(=O)c(C(=O)[O-])cn3C2CC2)CC1.O.O.O.O.[Ca+2] [EFX-Ca, [Ca(EFX)2(H2O)4]·H2O]
[1]; 2000 mg/kg single gavage, Day-0
  Body Weight (g, x¯ ± SD): 17.51 ± 1.14 g
[1]; 2000 mg/kg single gavage, Day-1
  Body Weight (g, x¯ ± SD): 19.77 ± 1.22 g
[1]; 2000 mg/kg single gavage, Day-4
  Body Weight (g, x¯ ± SD): 25.91 ± 1.83 g
[1]; 2000 mg/kg single gavage, Day-7
  Body Weight (g, x¯ ± SD): 29.78 ± 3.46 g
[1]; 2000 mg/kg single gavage, Day-14
  Body Weight (g, x¯ ± SD): 33.33 ± 5.64 g
[1]; 3031 mg/kg single gavage, Day-0
  Body Weight (g, x¯ ± SD): 18.32 ± 0.94 g
[1]; 3031 mg/kg single gavage, Day-1
  Body Weight (g, x¯ ± SD): 19.61 ± 1.23 g
[1]; 3031 mg/kg single gavage, Day-4
  Body Weight (g, x¯ ± SD): 25.70 ± 1.24 g
[1]; 3031 mg/kg single gavage, Day-7
  Body Weight (g, x¯ ± SD): 28.44 ± 2.14 g
[1]; 3031 mg/kg single gavage, Day-14
  Body Weight (g, x¯ ± SD): 33.91 ± 5.25 g
[1]; 4595 mg/kg single gavage, Day-0
  Body Weight (g, x¯ ± SD): 17.31 ± 1.05 g
[1]; 4595 mg/kg single gavage, Day-1
  Body Weight (g, x¯ ± SD): 17.09 ± 1.56 g
[1]; 4595 mg/kg single gavage, Day-4
  Body Weight (g, x¯ ± SD): 20.10 ± 5.55 g
[1]; 4595 mg/kg single gavage, Day-7
  Body Weight (g, x¯ ± SD): 26.43 ± 5.34 g
[1]; 4595 mg/kg single gavage, Day-14
  Body Weight (g, x¯ ± SD): 33.60 ± 7.07 g
[1]; 6964 mg/kg single gavage, Day-0
  Body Weight (g, x¯ ± SD): 17.68 ± 0.88 g
[1]; 6964 mg/kg single gavage, Day-1
  Body Weight (g, x¯ ± SD): 17.21 ± 1.22 g
[1]; 6964 mg/kg single gavage, Day-4
  Body Weight (g, x¯ ± SD): 16.89 ± 5.13 g
[1]; 6964 mg/kg single gavage, Day-7
  Body Weight (g, x¯ ± SD): 23.11 ± 4.21 g
[1]; 6964 mg/kg single gavage, Day-14
  Body Weight (g, x¯ ± SD): 29.30 ± 5.26 g
[1]; 10,556 mg/kg single gavage, Day-0
  Body Weight (g, x¯ ± SD): 17.67 ± 0.72 g
[1]; 10,556 mg/kg single gavage, Day-1
  Body Weight (g, x¯ ± SD): 17.00 ± 0.30 g
[1]; 10,556 mg/kg single gavage, Day-4
  Body Weight (g, x¯ ± SD): 21.53 ± 2.10 g
[1]; 10,556 mg/kg single gavage, Day-7
  Body Weight (g, x¯ ± SD): 26.47 ± 3.50 g
[1]; 10,556 mg/kg single gavage, Day-14
  Body Weight (g, x¯ ± SD): 34.00 ± 7.50 g
[1]; 16,000 mg/kg single gavage, Day-0
  Body Weight (g, x¯ ± SD): 17.84 ± 1.23 g
[1]; 16,000 mg/kg single gavage, Day-1
  Body Weight (g, x¯ ± SD): 17.43 ± 1.95 g
[1]; 16,000 mg/kg single gavage, Day-4
  Body Weight (g, x¯ ± SD): 23.55 ± 2.66 g
[1]; 16,000 mg/kg single gavage, Day-7
  Body Weight (g, x¯ ± SD): 29.15 ± 2.66 g
[1]; 16,000 mg/kg single gavage, Day-14
  Body Weight (g, x¯ ± SD): 37.25 ± 4.57 g
[2]; 0.01 μM medicated bath, 24 hpf
  statistical death of the tested zebrafish: 6
  statistical survival of the tested zebrafish: 24
[2]; 0.01 μM medicated bath, 48 hpf
  statistical death of the tested zebrafish: 6
  statistical survival of the tested zebrafish: 24
[2]; 0.01 μM medicated bath, 72 hpf
  statistical death of the tested zebrafish: 6
  statistical survival of the tested zebrafish: 24
[2]; 0.01 μM medicated bath, 96 hpf
  statistical death of the tested zebrafish: 8
  statistical survival of the tested zebrafish: 22
[2]; [8]
  statistical death of the tested zebrafish: 8
  statistical survival of the tested zebrafish: 22
[2]; 0.1 μM medicated bath, 24 hpf
  statistical death of the tested zebrafish: 4
  statistical survival of the tested zebrafish: 26
[2]; 0.1 μM medicated bath, 48 hpf
  statistical death of the tested zebrafish: 4
  statistical survival of the tested zebrafish: 26
[2]; 0.1 μM medicated bath, 72 hpf
  statistical death of the tested zebrafish: 4
  statistical survival of the tested zebrafish: 26
[2]; 0.1 μM medicated bath, 96 hpf
  statistical death of the tested zebrafish: 4
  statistical survival of the tested zebrafish: 26
[2]; 0.1 μM medicated bath, 120 hpf
  statistical death of the tested zebrafish: 4
  statistical survival of the tested zebrafish: 26
[2]; 1 μM medicated bath, 24 hpf
  statistical death of the tested zebrafish: 2
  statistical survival of the tested zebrafish: 28
[2]; 1 μM medicated bath, 48 hpf
  statistical death of the tested zebrafish: 2
  statistical survival of the tested zebrafish: 28
[2]; 1 μM medicated bath, 72 hpf
  statistical death of the tested zebrafish: 2
  statistical survival of the tested zebrafish: 28
[2]; 1 μM medicated bath, 96 hpf
  statistical death of the tested zebrafish: 2
  statistical survival of the tested zebrafish: 28
[2]; 1 μM medicated bath, 120 hpf
  statistical death of the tested zebrafish: 2
  statistical survival of the tested zebrafish: 28
[2]; 10 μM medicated bath, 24 hpf
  statistical death of the tested zebrafish: 4
  statistical survival of the tested zebrafish: 26
[2]; 10 μM medicated bath, 48 hpf
  statistical death of the tested zebrafish: 4
  statistical survival of the tested zebrafish: 26
[2]; 10 μM medicated bath, 72 hpf
  statistical death of the tested zebrafish: 4
  statistical survival of the tested zebrafish: 26
[2]; 10 μM medicated bath, 96 hpf
  statistical death of the tested zebrafish: 4
  statistical survival of the tested zebrafish: 26
[2]; 10 μM medicated bath, 120 hpf
  statistical death of the tested zebrafish: 4
  statistical survival of the tested zebrafish: 26
[2]; 20 μM medicated bath, 24 hpf
  statistical death of the tested zebrafish: 0
  statistical survival of the tested zebrafish: 30
[2]; 20 μM medicated bath, 48 hpf
  statistical death of the tested zebrafish: 0
  statistical survival of the tested zebrafish: 30
[2]; 20 μM medicated bath, 72 hpf
  statistical death of the tested zebrafish: 0
  statistical survival of the tested zebrafish: 30
[2]; 20 μM medicated bath, 96 hpf
  statistical death of the tested zebrafish: 0
  statistical survival of the tested zebrafish: 30
[2]; 20 μM medicated bath, 120 hpf
  statistical death of the tested zebrafish: 0
  statistical survival of the tested zebrafish: 30
[2]; full-range concentration 0.01 to 20 μM, 24 to 120 hpf
  physiological abnormalities of zebrafish: no obvious physiological abnormalities
[3]; 0.1 μM pre-incubation 1 h
  CuSO4-induced neutrophil aggregation: significantly dispersed
[3]; 1 μM pre-incubation 1 h
  CuSO4-induced neutrophil aggregation: the neutrophil aggregation was more effectively inhibited
[4]; 0.01 μM
  Average IOD (integrated optical density) of green fluorescence: 1060 a.u.
[4]; 0.1 μM
  Average IOD (integrated optical density) of green fluorescence: 721 a.u.
[4]; 1 μM
  Average IOD (integrated optical density) of green fluorescence: 863 a.u.
[5]; plasma
  Ke: 0.16
  Tmax: 0.75 H
  Vd: 0.26744 L/kg
  t 1/2β: 4.41 H
[5]; male, SD, rat, in vivo, Drug concentration in plasma, 0 h
  concentration at 0 h: 80 ng/mL
[5]; male, SD, rat, in vivo, Drug concentration in plasma, 0.083 h
  concentration at 0.083 h: 860 ng/mL
[5]; male, SD, rat, in vivo, Drug concentration in plasma, 0.333 h
  concentration at 0.333 h: 840 ng/mL
[5]; male, SD, rat, in vivo, Drug concentration in plasma, 0.5 h
  concentration at 0.5 h: 1690 ng/mL
[5]; male, SD, rat, in vivo, Drug concentration in plasma, 0.75 h
  concentration at 0.75 h: 1920 ng/mL
[5]; male, SD, rat, in vivo, Drug concentration in plasma, 1 h
  concentration at 1 h: 1390 ng/mL
[5]; male, SD, rat, in vivo, Drug concentration in plasma, 3 h
  concentration at 3 h: 770 ng/mL
[5]; male, SD, rat, in vivo, Drug concentration in plasma, 4 h
  concentration at 4 h: 700 ng/mL
[5]; male, SD, rat, in vivo, Drug concentration in plasma, 6 h
  concentration at 6 h: 580 ng/mL
[5]; male, SD, rat, in vivo, Drug concentration in plasma, 8 h
  concentration at 8 h: 480 ng/mL
[5]; male, SD, rat, in vivo, Drug concentration in plasma, 10 h
  concentration at 10 h: 100 ng/mL
[5]; male, SD, rat, in vivo, Drug concentration in plasma, 12 h
  concentration at 12 h: 140 ng/mL
[5]; male, SD, rat, in vivo, Drug concentration in plasma, 24 h
  concentration at 24 h: 90 ng/mL
[6]; EFX-Ca High 14 g + 1.5 kg feed
  Average Final Weight: 1750 ± 125 g
  Average Weight Gain: 250
  Average Increment of Weight: 230 g
[6]; [9]
  Cure Rate (%): 60%
  Survival Number: 30
[6]; EFX-Ca Low 6 g + 1.5 kg feed
  Average Final Weight: 1690 ± 95 g
  Average Weight Gain: 190
  Average Increment of Weight: 190 g
[6]; [10]
  Cure Rate (%): 54%
  Survival Number: 27
[6]; [11]
  Average Final Weight: 1640 ± 73 g
  Average Weight Gain: 140
  Average Increment of Weight: 280 g
[6]; [12]
  Cure Rate (%): 78%
  Survival Number: 39
[6]; AA infected chickens, EFX-Ca medium dose vs EFX
  highest cure rate, higher than the EFX dose group by: 25.8%
[7]; [13]
  Average Final Weight: 1000 ± 51 g
  Average Weight Gain: 70
  Average Increment of Weight: 80 g
[7]; [14]
  Cure Rate (%): 58%
  Survival Number: 29
[7]; EFX-Ca Low 6 g + 0.75 kg feed
  Average Final Weight: 1210 ± 67 g
  Average Weight Gain: 280
  Average Increment of Weight: 260 g
[7]; [15]
  Cure Rate (%): 88%
  Survival Number: 44
[7]; [16]
  Average Final Weight: 1010 ± 61 g
  Average Weight Gain: 80
  Average Increment of Weight: 140 g
[7]; [17]
  Cure Rate (%): 80%
  Survival Number: 40
[7]; 817 infected chickens, EFX-Ca low dose vs EFX
  highest cure rate, higher than the EFX dose group by: 37.5%
